Data on five compounds can be found in patent US6857485B2, “Shale hydration inhibition agent and method of use” (M-I LLC, priority 2000, dated 2005).

Data set [1] is described as follows: Bentonite Hydration Study, 50 ppb bentonite (Example 6). The protocol:
In this procedure a pint jar was filled with one barrel equivalent of tap water and test sample, adjusted the pH to at least 9 and treated with a 50 ppb portion M-I GEL (bentonite) at a medium shear rate. After stirring for 30 minutes, the rheologies were measured and then the samples were heat aged overnight at 150° F. After the samples were cooled their rheologies and pHs were recorded. The following data is representative of how the rheologies are affected by the addition of the 50 ppb of bentonite in tap water treated with the experimental inhibitors.

The nature of data set [2]: Bentonite inhibition by daily addition of bentonite (Example 7). The settings on record: for 300 rpm Rheologies / 600 rpm Rheologies / 3 rpm Rheologies / 10 Min Gels / Plastic Viscosity / Yield Point: 10 ppb inhibitor; for 300 rpm Rheologies / 600 rpm Rheologies: Heat Aged (150° F.); for 3 rpm Rheologies / 10 Min Gels / Plastic Viscosity / Yield Point: Heat Aged (150°). The procedure: This test procedure uses pint jars that are filled with one barrel equivalent of tap water and 10 ppb of a shale inhibitor. Tap water was used as a control sample. All samples were adjusted to at least a pH of 9 and treated with a 10 ppb portion of M-I GEL (bentonite) at a medium shear rate. After stirring for 30 minutes, the rheologies were measured and then the samples were heat aged overnight at 150° F. After the samples were cooled their rheologies and pHs were recorded. All samples were then adjusted to at least a pH 9 before treating them again with bentonite as previously described. This procedure was carried out for each sample until all were too thick to measure.

A short description of data set [3]: Viscosity of product from neutralization of Jeffamine D-230 with acids. The format is physicochemical. The note with it: for Viscosity (centipoises) at pH 9.5: Jeffamine D-230 neutralized with the acid to pH 9.5; for Viscosity (centipoises) at pH 10.5: Jeffamine D-230 neutralized with the acid to pH 10.5. The source says:
Synthesis of the salt: Synthesis of the salts from the free amine compounds is simple and should be well known and within the skill of a person of ordinary skill in the art. In one method the salt is formed in situ within a fully formulated mud by the addition of the acid directly to the mud. Alternatively the amine compound may be neutralized first with acid and then the salt added to the mud. When conducting the neutralization reaction between the amine compound and the acid compound either concentrated or diluted acid may be used. When concentrated acid is utilized, typically a slurry of the salt is formed. When the acid is diluted in water, an aqueous solution containing the amine salt is formed.

Data set [4] can be described thus: Hot-Rolling Dispersion in fresh water, Foss Eikeland shale. The note with it: 350 ml freshwater with 10.5 g shale inhibitor, hot rolled 16 hours at 150° F. The protocol:
(§1) Synthesis of the amine salt was carried out as previously disclosed above. Fresh water was utilized as the base fluid in this example.
(§2) A hot-rolling dispersion test was conducted using samples of Oxford shale, Foss Eikeland shale and actual shale drilling cutting recovered from a well in the field. […] The resulting mixture was hot rolled for 16 hours at 150° F. After rolling, the remaining shale cuttings were screened from the base fluid using a US 20 mesh screen and washed clean of base fluid with 10% potassium chloride aqueous solution. After drying the samples, they were weighed and the percentage of recovered shale was calculated.

Data set [5] can be described thus: Hot-Rolling Dispersion in fresh water, field cuttings. The note with it: 350 ml freshwater with 10.5 g shale inhibitor, hot rolled 16 hours at 150° F. The procedure: as §1, §2
Data set [6] is described as follows: Hot-Rolling Dispersion in fresh water, Oxford shale. The note with it: 350 ml freshwater with 10.5 g shale inhibitor, hot rolled 16 hours at 150° F. The procedure: as §1, §2

Turning to `COCCOC(C)COC(C)COC(C)COC(C)COC(C)COC(C)COC(C)COC(C)COCC(C)N` (stereo not shown) [Jeffamine M-600], the “shale hydration inhibition, judgement” value in data set [1] was “performed well as shale hydration inhibitors”. In data set [1] (Heat Aged Rheology (150° F.)), the “Gels 10 sec.” value stood at 1 lbs/100 ft^2, the “Gels 10 min.” value was 1 lbs/100 ft^2, the PV came to 16 CPS and the “Rheology 3 RPM” value is 1. Also, in data set [1] (Heat Aged Rheology (150° F.)), the “Rheology 6 RPM” value is recorded as 1, the “Rheology 100 RPM” value is on record as 10, the “Rheology 200 RPM” value was 17 and the “Rheology 300 RPM” value is given as 24. Moreover, in data set [1] (Heat Aged Rheology (150° F.)), the “Rheology 600 RPM” value is recorded as 40, the YP came to 8 lbs/100 ft^2 and the pH is on record as 11.1. Besides, in data set [1] (Initial Rheology), the “Gels 10 sec.” value is 11 lbs/100 ft^2, the “Gels 10 min.” value amounted to 25 lbs/100 ft^2, the PV is 19 CPS and the “Rheology 3 RPM” value turned out to be 4. In data set [1] (Initial Rheology), the “Rheology 6 RPM” value was found to be 5, the “Rheology 100 RPM” value is 17, the “Rheology 200 RPM” value is 25 and the “Rheology 300 RPM” value was determined as 33. Further, in data set [1] (Initial Rheology), the “Rheology 600 RPM” value is 52, the YP was found to be 14 lbs/100 ft^2 and the pH is 11.1. In data set [2] (Bentonite 30 lb/bbl), the “300 rpm Rheologies” value was 9, the “600 rpm Rheologies” value was 18, the “3 rpm Rheologies” value was 0 and the “10 Min Gels” value is given as 0 lbs/100 ft^2. Further, in data set [2] (Bentonite 30 lb/bbl), the “Plastic Viscosity” value is 9 CPS and the “Yield Point” value came to 1 lbs/100 ft^2. Besides, in data set [2] (Bentonite 40 lb/bbl), the “300 rpm Rheologies” value is recorded as 18, the “600 rpm Rheologies” value was 35, the “3 rpm Rheologies” value was 0 and the “10 Min Gels” value is 0 lbs/100 ft^2. Further, in data set [2] (Bentonite 40 lb/bbl), the “Plastic Viscosity” value is recorded as 16 CPS and the “Yield Point” value stood at 1 lbs/100 ft^2. In data set [2] (Bentonite 50 lb/bbl), the “300 rpm Rheologies” value amounted to 41, the “600 rpm Rheologies” value is on record as 74, the “3 rpm Rheologies” value worked out at 0 and the “10 Min Gels” value was 0 lbs/100 ft^2. Further, in data set [2] (Bentonite 50 lb/bbl), the “Plastic Viscosity” value worked out at 33 CPS and the “Yield Point” value is reported as 8 lbs/100 ft^2. Besides, in data set [2] (Bentonite 60 lb/bbl), the “300 rpm Rheologies” value is 71, the “600 rpm Rheologies” value is listed as 146, the “3 rpm Rheologies” value amounted to 0 and the “10 Min Gels” value was determined as 0 lbs/100 ft^2. Also, in data set [2] (Bentonite 60 lb/bbl), the “Plastic Viscosity” value came out at 75 CPS and the “Yield Point” value stood at 4 lbs/100 ft^2. Moreover, in data set [2] (Bentonite 70 lb/bbl), the “300 rpm Rheologies” value came out at 121, the “600 rpm Rheologies” value was found to be 259, the “3 rpm Rheologies” value amounted to 0 and the “10 Min Gels” value is recorded as 3 lbs/100 ft^2. In data set [2] (Bentonite 70 lb/bbl), the “Plastic Viscosity” value is given as 138 CPS and the “Yield Point” value was found to be 17 lbs/100 ft^2. Also, the “shale hydration inhibition, judgement” value in data set [2] (daily addition of bentonite) was “performs as a shale hydration inhibitor”.

For the compound `O=[N+]([O-])O` [Nitric acid], in data set [3], the “Viscosity (centipoises) at pH 9.5” value amounted to 610 cps. Besides, the “Viscosity (centipoises) at pH 10.5” value in data set [3] amounted to 120 cps. In addition, the “% recovered” value in data set [4] came to 69.1%; in data set [5] it was 45.7%; in data set [6], 87.6%.

As for Citric acid, in data set [3], the “Viscosity (centipoises) at pH 9.5” value came to 2000 cps and the “Viscosity (centipoises) at pH 10.5” value stood at 180 cps. Moreover, in data set [4], the “% recovered” value is 78.0%. For the same compound, the “% recovered” value in data set [6] turned out to be 87.0%.

For the compound `O=P(O)(O)O` [Phosphoric acid], the “Viscosity (centipoises) at pH 9.5” value in data set [3] was “slurry”. The “Viscosity (centipoises) at pH 10.5” value in data set [3] is reported as “slurry”. For the same compound, the “% recovered” value in data set [4] was determined as 69.1%; in data set [5], 42.6%; in data set [6], 87.8%.

As for `CC(=O)O` [Acetic acid], the “Viscosity (centipoises) at pH 9.5” value in data set [3] came to 1425 cps. Also, the “Viscosity (centipoises) at pH 10.5” value in data set [3] was 33 cps. Besides, the “% recovered” value came out at 72.4% in data set [4], 47.6% in data set [5] and 88.0% in data set [6].
